From patent US11759455B2, “Substituted 1H-imidazo[4,5-b]pyridin-2(3H)-ones and their use as GLUN2B receptor modulators” (JANSSEN PHARMACEUTICA NV, priority 2016, dated 2023) come the findings set out here.

Read-outs that look alike come from different tables or passages of the source.

This test addresses T1, human GluN1/GluN2B NMDA receptors (Homo sapiens, UniProt Q13224).
T1 construct: expressed in transfected cells
As to the kind of experiment: Cell-based calcium flux (FLIPR) assay on cloned human NR1/NR2B ion channels expressed in mammalian cells (standard and HTS buffer variants).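 Note: stable Tet-On inducible cell line, Ca2+ influx triggered by glutamate at about EC40 plus 10 µM glycine, fluorescent dye read-out over 5 min, normalized to control wells.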 In general terms: A change in cytosolic calcium serves as a functional read-out for many receptors and channels.

[1] abbreviates: standard assay buffer (0.5 mM MgCl2 in dye loading buffer; 137 mM NaCl, 4 mM KCl in assay buffer), human GluN1/GluN2B, read-out: NR2B IC50 (μM) standard assay.
Where [2] appears, read: standard assay buffer (0.5 mM MgCl2 dye loading; 137 mM NaCl, 4 mM KCl assay buffer), human GluN1/GluN2B cells, read-out: NR2B IC50 (μM) standard assay.
The mark [3] stands for this setting: HTS assay buffer (1.5 mM MgCl2 in dye loading buffer; 150 mM NaCl, 3 mM KCl in assay buffer), human GluN1/GluN2B, read-out: NR2B IC50 (μM) HTS assay.

T1 sequence (Q13224 27-1484, other chains not shown): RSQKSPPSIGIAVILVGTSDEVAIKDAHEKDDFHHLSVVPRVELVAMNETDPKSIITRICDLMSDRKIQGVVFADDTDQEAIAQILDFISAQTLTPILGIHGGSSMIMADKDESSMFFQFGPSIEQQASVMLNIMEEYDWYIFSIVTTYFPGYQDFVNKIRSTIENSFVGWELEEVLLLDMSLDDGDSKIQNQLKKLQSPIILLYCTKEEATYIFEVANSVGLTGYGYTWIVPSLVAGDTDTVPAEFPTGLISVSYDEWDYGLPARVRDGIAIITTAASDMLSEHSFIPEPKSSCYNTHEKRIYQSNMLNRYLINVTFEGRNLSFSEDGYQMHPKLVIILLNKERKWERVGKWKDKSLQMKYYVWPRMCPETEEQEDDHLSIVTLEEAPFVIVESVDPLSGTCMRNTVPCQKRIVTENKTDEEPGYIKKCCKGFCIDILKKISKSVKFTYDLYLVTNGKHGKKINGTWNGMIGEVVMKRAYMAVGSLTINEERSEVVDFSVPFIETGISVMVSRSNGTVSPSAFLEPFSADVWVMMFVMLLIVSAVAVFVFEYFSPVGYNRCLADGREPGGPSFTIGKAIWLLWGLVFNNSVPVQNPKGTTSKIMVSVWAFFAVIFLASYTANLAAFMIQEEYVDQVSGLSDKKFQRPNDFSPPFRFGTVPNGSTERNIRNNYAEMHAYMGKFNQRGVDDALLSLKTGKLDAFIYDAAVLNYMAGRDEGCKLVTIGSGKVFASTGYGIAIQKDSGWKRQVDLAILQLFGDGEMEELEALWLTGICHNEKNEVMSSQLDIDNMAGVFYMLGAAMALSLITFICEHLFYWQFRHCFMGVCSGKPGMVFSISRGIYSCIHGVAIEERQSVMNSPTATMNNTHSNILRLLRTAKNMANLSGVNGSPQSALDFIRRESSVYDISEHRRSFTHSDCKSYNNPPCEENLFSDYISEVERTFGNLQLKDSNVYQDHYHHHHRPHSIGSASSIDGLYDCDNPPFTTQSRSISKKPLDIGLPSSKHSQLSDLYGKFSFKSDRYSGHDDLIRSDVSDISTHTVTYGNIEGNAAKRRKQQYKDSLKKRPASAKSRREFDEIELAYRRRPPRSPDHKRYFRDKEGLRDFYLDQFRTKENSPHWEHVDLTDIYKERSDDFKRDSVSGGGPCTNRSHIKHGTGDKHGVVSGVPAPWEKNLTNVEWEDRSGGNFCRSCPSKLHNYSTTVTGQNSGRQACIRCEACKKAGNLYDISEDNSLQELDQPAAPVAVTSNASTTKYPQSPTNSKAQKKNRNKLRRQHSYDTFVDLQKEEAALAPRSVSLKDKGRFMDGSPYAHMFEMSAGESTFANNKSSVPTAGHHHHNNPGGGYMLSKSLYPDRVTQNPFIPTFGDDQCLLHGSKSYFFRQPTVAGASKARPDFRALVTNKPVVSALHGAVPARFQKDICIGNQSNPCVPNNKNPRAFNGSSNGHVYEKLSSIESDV

Consider `Cn1c(=O)n(CC(=O)N2CC(F)(F)C2)c2cc(-c3ccc(F)c(F)c3)cnc21` [Example 416, 1-[2-(3,3-Difluoroazetidin-1-yl)-2-oxo-ethyl]-6-(3,4-difluorophenyl)-3-methyl-imidazo[4,5-b]pyridin-2-one], for which the IC50 – broadly, the point on the concentration scale where inhibition reaches its midpoint – under setting [1] turned out to be 0.01 µM.
Same read-out and setting: the same measure for `Cn1c(=O)n(Cc2cccnn2)c2cc(-c3cc(F)cc(C(F)(F)F)c3)cnc21` [Example 383, 6-[3-Fluoro-5-(trifluoromethyl)phenyl]-3-methyl-1-(pyridazin-3-ylmethyl)imidazo[4,5-b]pyridin-2-one]: 0.041 µM.
With `Cc1cc(C)cc(-c2cnc3[nH]c(=O)n(CCN4CCC4)c3c2)c1` [Example 170, 1-[2-(Azetidin-1-yl)ethyl]-6-(3,5-dimethylphenyl)-3H-imidazo[4,5-b]pyridin-2-one], the IC50 under setting [2] was found to be 0.581 µM.
For the compound `Cc1csc(-c2cnc3c(c2)n(Cc2cc(C)on2)c(=O)n3C)c1` [Example 14, 3-Methyl-1-[(5-methylisoxazol-3-yl)methyl]-6-(4-methyl-2-thienyl)imidazo[4,5-b]pyridin-2-one], the IC50 under setting [2] turned out to be 0.097 µM.
Regarding `Cn1c(=O)n(CC(=O)N2CCC(F)(F)C2)c2cc(-c3cccc(C(F)(F)F)c3)cnc21` [Example 196, 1-[2-(3,3-Difluoropyrrolidin-1-yl)-2-oxo-ethyl]-3-methyl-6-[3-(trifluoromethyl)phenyl]imidazo[4,5-b]pyridin-2-one], the IC50 under setting [2] came out at 0.182 µM.
On the same count and under the same terms, the same measure for `O=C(O)Cn1c(=O)[nH]c2ncc(-c3cccc(C(F)(F)F)c3)cc21` [Example 135, 2-[2-Oxo-6-[3-(trifluoromethyl)phenyl]-3H-imidazo[4,5-1D]pyridin-1-yl]acetic Acid]: 6 µM.
Still for that read-out and setting: with `O=C(Cn1c(=O)[nH]c2ncc(-c3cccc(C(F)(F)F)c3)cc21)N1CC(F)(F)C1` [Example 194, 1-[2-(3,3-Difluoroazetidin-1-yl)-2-oxo-ethyl]-6-[3-(trifluoromethyl)phenyl]-3H-imidazo[4,5-b]pyridin-2-one] the figure was 0.047 µM; with `O=C(Cn1c(=O)[nH]c2ncc(-c3cccc(C(F)(F)F)c3)cc21)N1CCCC1` [Example 201, 1-(2-Oxo-2-pyrrolidin-1-yl-ethyl)-6-[3-(trifluoromethyl)phenyl]-3H-imidazo[4,5-b]pyridin-2-one], 0.033 µM; with `COC1CCN(CCn2c(=O)[nH]c3ncc(-c4cc(F)cc(F)c4)cc32)C1` (centres unmarked) [Example 176, 6-(3,5-Difluorophenyl)-1-[2-(3-methoxypyrrolidin-1-yl)ethyl]-3H-imidazo[4,5-b]pyridin-2-one], 4.37 µM.
Still for that read-out and setting: with `Cc1cc(-c2cnc3[nH]c(=O)n(Cc4ccccn4)c3c2)ccc1F` [Example 283, 6-(4-Fluoro-3-methyl-phenyl)-1-(2-pyridylmethyl)-3H-imidazo[4,5-b]pyridin-2-one] the figure was 0.079 µM; with `Cn1c(=O)n(Cc2ccccn2)c2cc(-c3cccc(F)c3)cnc21` [Example 53, 6-(3-Fluorophenyl)-3-methyl-1-(2-pyridylmethyl)imidazo[4,5-b]pyridin-2-one], 1.4 µM.
For the compound `Cn1c(=O)n(CC(=O)N2CC(F)C2)c2cc(-c3ccc(F)c(F)c3)cnc21` [Example 403, 6-(3,4-Difluorophenyl)-1-[2-(3-fluoroazetidin-1-yl)-2-oxo-ethyl]-3-methyl-imidazo[4,5-b]pyridin-2-one], under setting [1], the IC50 came to 0.042 µM.
In the case of `O=c1[nH]c2ncc(-c3cccc(C(F)F)c3)cc2n1Cc1cccnc1` [Example 291, 6-[3-(Difluoromethyl)phenyl]-1-(3-pyridylmethyl)-3H-imidazo[4,5-b]pyridin-2-one], the IC50 under setting [2] was 0.022 µM.
The same measure, in the same setting: the same measure for `Cc1cc(-c2cnc3c(c2)n(Cc2ccccn2)c(=O)n3C)ccc1F` [Example 6, 6-(4-Fluoro-3-methyl-phenyl)-3-methyl-1-(2-pyridylmethyl)imidazo[4,5-b]pyridin-2-one]: 0.048 µM.
Regarding `Cc1cccc(-c2cnc3c(c2)n(CC(=O)N2CC(F)C2)c(=O)n3C)c1` [Example 404, 1-[2-(3-Fluoroazetidin-1-yl)-2-oxo-ethyl]-3-methyl-6-(m-tolyl)imidazo[4,5-b]pyridin-2-one], the IC50 under setting [1] is 0.05 µM.
Same read-out and setting: the same measure for `CNC(=O)Cn1c(=O)[nH]c2ncc(-c3ccc(F)cc3C)cc21` [Example 437, 2-[6-(4-Fluoro-2-methyl-phenyl)-2-oxo-3H-imidazo[4,5-b]pyridin-1-yl]-N-methyl-acetamide]: 0.219 µM.
As to `Cc1cc(Cn2c(=O)n(C)c3ncc(-c4ccc(C)s4)cc32)no1` [Example 558, 3-Methyl-1-[(5-methylisoxazol-3-yl)methyl]-6-(5-methyl-2-thienyl)imidazo[4,5-b]pyridin-2-one], the IC50 under setting [1] stood at 0.216 µM.
Same read-out and setting: with `Cc1cc(-c2cnc3c(c2)n(CC(=O)N2CC(F)(F)C2)c(=O)n3C)ccc1F` [Example 413, 1-(2-(3,3-Difluoroazetidin-1-yl)-2-oxoethyl)-6-(4-fluoro-3-methylphenyl)-3-methyl-1H-imidazo[4,5-b]pyridin-2(3H)-one] the figure was 0.009 µM; with `O=C(Cn1c(=O)n(CF)c2ncc(-c3ccc(C(F)(F)F)s3)cc21)N1CCC1` [Example 534, 1-[2-(Azetidin-1-yl)-2-oxo-ethyl]-3-(fluoromethyl)-6-[5-(trifluoromethyl)-2-thienyl]imidazo[4,5-b]pyridin-2-one], 0.036 µM.
Consider `Cc1nnc(Cn2c(=O)n(C)c3ncc(-c4ccc(F)c(F)c4)cc32)o1` [Example 73, 6-(3,4-Difluorophenyl)-3-methyl-1-[(5-methyl-1,3,4-oxadiazol-2-yl)methyl]imidazo[4,5-b]pyridin-2-one], for which the IC50 under setting [2] was 0.314 µM.
Still for that read-out and setting: with `Cn1c(=O)n(CCN2CCC2)c2cc(-c3cccc(C(F)(F)F)c3)cnc21` [Example 18, 1-[2-(Azetidin-1-yl)ethyl]-3-methyl-6-[3-(trifluoromethyl)phenyl]imidazo[4,5-b]pyridin-2-one] the figure was 0.7 µM.
Take `CCOc1ccc(F)cc1-c1cnc2[nH]c(=O)n(Cc3c(C)noc3C)c2c1` [Example 514, 1-[(3,5-Dimethylisoxazol-4-yl)methyl]-6-(2-ethoxy-5-fluoro-phenyl)-3H-imidazo[4,5-b]pyridin-2-one]: the IC50 under setting [3] is greater than 29 µM.
For `Cc1c(F)ccc(-c2cnc3[nH]c(=O)n(CC(=O)N4CCC4)c3c2)c1F` [Example 579, 1-[2-(Azetidin-1-yl)-2-oxo-ethyl]-6-(2,4-difluoro-3-methyl-phenyl)-3H-imidazo[4,5-b]pyridin-2-one], the IC50 under setting [1] amounted to 0.015 µM.
On the same count and under the same terms, the same measure for `Cn1c(=O)n(CC(=O)N2CC(F)C2)c2cc(-c3ccc(Cl)c(OC(F)F)c3)cnc21` [Example 593, 6-[4-Chloro-3-(difluoromethoxy)phenyl]-1-[2-(3-fluoroazetidin-1-yl)-2-oxo-ethyl]-3-methyl-imidazo[4,5-b]pyridin-2-one]: 0.053 µM.
Turning to `Cc1cc(Cn2c(=O)n(C)c3ncc(-c4ccc(F)c(F)c4)cc32)no1` [Example 8, 6-(3,4-Difluorophenyl)-3-methyl-1-[(5-methylisoxazol-3-yl)methyl]imidazo[4,5-b]pyridin-2-one], the concentration for half-maximal inhibition (IC50) under setting [2] stood at 0.104 µM.
Consider `Cc1c(F)ccc(-c2cnc3c(c2)n(Cc2cn(C)nn2)c(=O)n3C)c1F` [Example 574, 6-(2,4-Difluoro-3-methyl-phenyl)-3-methyl-1-[(1-methyltriazol-4-yl)methyl]imidazo[4,5-b]pyridin-2-one], for which the IC50 under setting [1] amounted to 0.046 µM.
Consider `Cn1c(=O)n(Cc2csnn2)c2cc(-c3ccc(F)c(F)c3)cnc21` [Example 545, 6-(3,4-Difluorophenyl)-3-methyl-1-(thiadiazol-4-ylmethyl)imidazo[4,5-b]pyridin-2-one], for which, under setting [1], the half-maximal inhibitory concentration (IC50) is 0.512 µM.
As to `COCc1noc(Cn2c(=O)[nH]c3ncc(-c4ccc(F)c(F)c4)cc32)n1` [Example 145, 6-(3,4-Difluorophenyl)-1-[[3-(methoxymethyl)-1,2,4-oxadiazol-5-yl]methyl]-3H-imidazo[4,5-b]pyridin-2-one], the IC50 under setting [2] amounted to 1.31 µM.
On the same count and under the same terms, the same measure for `Cn1c(=O)n(CC(=O)N2CC(F)C2)c2cc(-c3ccc(C(F)F)s3)cnc21` [Example 10, 6-[5-(Difluoromethyl)-2-thienyl]-1-[2-(3-fluoroazetidin-1-yl)-2-oxo-ethyl]-3-methyl-imidazo[4,5-b]pyridin-2-one]: 0.01 µM; for `Cn1c(=O)n(CC(=O)N2CC(F)C2)c2cc(-c3csc(C(F)(F)F)n3)cnc21` [Example 109, 1-[2-(3-Fluoroazetidin-1-yl)-2-oxo-ethyl]-3-methyl-6-[2-(trifluoromethyl)thiazol-4-yl]imidazo[4,5-b]pyridin-2-one]: 0.04 µM; for `O=c1[nH]c2ncc(-c3cccc(C(F)(F)F)c3)cc2n1CCNC1CCC1` [Example 150, 1-[2-(Cyclobutylamino)ethyl]-6-[3-(trifluoromethyl)phenyl]-3H-imidazo[4,5-b]pyridin-2-one]: 0.277 µM.
For `Cc1ncc(-c2cnc3c(c2)n(CC(=O)N2CC(F)C2)c(=O)n3C)s1` [Example 113, 1-[2-(3-Fluoroazetidin-1-yl)-2-oxo-ethyl]-3-methyl-6-(2-methylthiazol-5-yl)imidazo[4,5-b]pyridin-2-one], the IC50 under setting [2] worked out at 5.36 µM.
Same read-out and setting: with `CCOC(=O)Cn1c(=O)n(C)c2ncc(-c3cccc(C(F)(F)F)c3)cc21` [Example 136, Ethyl 2-[3-methyl-2-oxo-6-[3-(trifluoromethyl)phenyl]imidazo[4,5-b]pyridin-1-yl]acetate] the figure was 0.159 µM; with `CCC(=O)Cn1c(=O)[nH]c2ncc(-c3ccc(F)c(C)c3F)cc21` [Example 30, 6-(2,4-Difluoro-3-methyl-phenyl)-1-(2-oxobutyl)-3H-imidazo[4,5-b]pyridin-2-one], 0.011 µM.
On to `O=C(Cn1c(=O)[nH]c2ncc(-c3ccc(Cl)cc3)cc21)NC1CC1` [Example 453, 2-[6-(4-Chlorophenyl)-2-oxo-3H-imidazo[4,5-b]pyridin-1-yl]-N-cyclopropyl-acetamide], for which the IC50 under setting [3] was 0.1 µM.
